Reference: patent publication US20230050653A1, “ROCK INHIBITOR AND PREPARATION METHOD THEREFOR AND USE THEREOF” (WUHAN LL SCIENCE AND TECHNOLOGY DEVELOPMENT CO., LTD., priority 2019, published 2023)

Key:
[1] = target: T1, ROCK1 kinase (Homo sapiens, UniProt Q13464); assay: In vitro evaluation of ROCK1 kinase selectivity (HTRF KinEASE-STK time-resolved fluorometric assay); assay type: biochemical
T1 construct: purchased Invitrogen
Description: ROCK1 activity was detected using a 96-well (Cisbio) time-resolved fluorometric assay. The assay for ROCK1 was performed in the following assay buffer: 5 mM MgCl2 (Sigma), 1 mM DTT (Sigma) and 1× kinase buffer. The kinase buffer was used for dilution. 7.5 μL of ROCK1 kinase (Invitrogen) was added to a 96-well microplate to reach a final concentration of 0.4 ng/μL, and then 0.25 μL of test compound (DMSO content: 1%) was added. The mixture was incubated at room temperature for 0.5 h. To start the reaction, the kinase buffer was also used to mix ATP (Aladdin) and the substrate STK-substrate 2-biotin. 7.5 μL of the mixed solution was added to the microplate to reach final concentrations of 3.53 μM and 1 μM. The resulting mixture was incubated for 2 h at room temperature. […] was mixed with STK antibody-Cryptate, and then an appropriate volume of the mixture was mixed with an equal volume of streptavidin-XL665. 10 μL of the resulting mixture was added to stop the reaction. After further incubation for about 1 h, the microplate was read on a Molecular Devices SpectraMax i3x multifunctional microplate reader. The kinase buffer, the STK-substrate 2-biotin, the detection buffer, the STK antibody-Cryptate, and the streptavidin-XL665 were all from HTRF KinEASE-STK kit (Cisbio, 1000 tests, 61[…]).

[2] = target: T2, ROCK2 kinase (Homo sapiens, UniProt O75116); assay: In vitro evaluation of ROCK2 kinase activity (HTRF KinEASE-STK time-resolved fluorometric assay); assay type: biochemical
T2 construct: purchased Invitrogen PV3759
T2 sequence (O75116 whole entry): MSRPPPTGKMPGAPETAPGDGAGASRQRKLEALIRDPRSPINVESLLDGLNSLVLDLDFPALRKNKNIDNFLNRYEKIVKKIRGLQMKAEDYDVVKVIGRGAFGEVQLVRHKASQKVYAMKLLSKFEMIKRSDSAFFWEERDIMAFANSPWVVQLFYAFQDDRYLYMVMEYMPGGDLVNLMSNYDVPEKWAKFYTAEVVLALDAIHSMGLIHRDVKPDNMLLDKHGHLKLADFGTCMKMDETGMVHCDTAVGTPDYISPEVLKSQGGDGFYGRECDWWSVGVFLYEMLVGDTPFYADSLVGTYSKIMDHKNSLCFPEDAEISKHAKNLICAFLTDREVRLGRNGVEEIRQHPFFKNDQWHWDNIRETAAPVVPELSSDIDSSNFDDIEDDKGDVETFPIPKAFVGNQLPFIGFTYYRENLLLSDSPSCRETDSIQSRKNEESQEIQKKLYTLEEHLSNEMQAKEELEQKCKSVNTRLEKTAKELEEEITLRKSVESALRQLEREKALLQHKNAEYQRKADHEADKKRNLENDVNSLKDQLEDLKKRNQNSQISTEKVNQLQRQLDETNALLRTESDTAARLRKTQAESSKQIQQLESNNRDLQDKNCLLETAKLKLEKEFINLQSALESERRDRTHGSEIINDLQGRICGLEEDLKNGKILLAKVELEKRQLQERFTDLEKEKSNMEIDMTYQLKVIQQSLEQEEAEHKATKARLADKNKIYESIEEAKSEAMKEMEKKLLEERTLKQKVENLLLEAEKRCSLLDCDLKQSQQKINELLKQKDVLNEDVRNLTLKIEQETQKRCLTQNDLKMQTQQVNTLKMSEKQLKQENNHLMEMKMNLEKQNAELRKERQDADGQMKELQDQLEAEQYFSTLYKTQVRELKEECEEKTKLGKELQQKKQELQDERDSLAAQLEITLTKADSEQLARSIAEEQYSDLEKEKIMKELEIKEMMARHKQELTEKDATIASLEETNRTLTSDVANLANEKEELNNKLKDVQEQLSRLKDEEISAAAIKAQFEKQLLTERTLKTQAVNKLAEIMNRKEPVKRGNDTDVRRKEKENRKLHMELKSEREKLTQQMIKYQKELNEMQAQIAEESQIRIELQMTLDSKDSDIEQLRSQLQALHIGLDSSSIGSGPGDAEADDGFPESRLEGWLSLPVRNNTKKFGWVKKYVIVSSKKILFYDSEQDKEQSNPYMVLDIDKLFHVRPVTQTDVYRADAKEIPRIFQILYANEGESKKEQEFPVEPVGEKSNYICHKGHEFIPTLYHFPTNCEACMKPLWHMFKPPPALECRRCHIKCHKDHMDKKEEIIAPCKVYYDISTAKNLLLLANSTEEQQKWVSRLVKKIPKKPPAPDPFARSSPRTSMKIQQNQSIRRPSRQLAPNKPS
Description: ROCK2 activity screening. ROCK2 activity was detected using a 96-well (Cisbio) time-resolved fluorometric assay. The assay for ROCK2 was performed in the following assay buffer: 5 mM MgCl2 (Sigma), 1 mM DTT (Sigma) and 1× kinase buffer. The kinase buffer was used for dilution. 7.5 μL of ROCK2 kinase (Invitrogen, PV3759) was added to a 96-well microplate to reach a final concentration of 0.4 ng/μL, and then 0.25 μL of test compound (DMSO content: 1% (volume fraction)) was added. The mixture was incubated at room temperature for 0.5 h. To start the reaction, the kinase buffer was used to mix ATP (Aladdin) and the substrate STK-substrate 2-biotin. 7.5 μL of the mixed solution was added to the microplate to reach final concentrations of 6.739 μM and 1 μM. The resulting mixture was incubated for 2 h at room temperature. 5 mL of detection buffer was mixed with STK antibody-Cryptate, and then an appropriate volume of the mixture was mixed with an equal volume of streptavidin-XL665. 10 μL of the resulting mixture was added to the microplate to stop the reaction. After further incubation for about 1 h, the microplate was read on a Molecular Devices SpectraMax i3x multifunctional microplate reader. The kinase buffer, the STK-substrate 2-biotin, the detection buffer, the STK antibody-Cryptate, and the streptavidin-XL665 were all from HTRF KinEASE-STK kit (Cisbio, 1000 tests, 61[…]).

T1 sequence (Q13464 whole entry): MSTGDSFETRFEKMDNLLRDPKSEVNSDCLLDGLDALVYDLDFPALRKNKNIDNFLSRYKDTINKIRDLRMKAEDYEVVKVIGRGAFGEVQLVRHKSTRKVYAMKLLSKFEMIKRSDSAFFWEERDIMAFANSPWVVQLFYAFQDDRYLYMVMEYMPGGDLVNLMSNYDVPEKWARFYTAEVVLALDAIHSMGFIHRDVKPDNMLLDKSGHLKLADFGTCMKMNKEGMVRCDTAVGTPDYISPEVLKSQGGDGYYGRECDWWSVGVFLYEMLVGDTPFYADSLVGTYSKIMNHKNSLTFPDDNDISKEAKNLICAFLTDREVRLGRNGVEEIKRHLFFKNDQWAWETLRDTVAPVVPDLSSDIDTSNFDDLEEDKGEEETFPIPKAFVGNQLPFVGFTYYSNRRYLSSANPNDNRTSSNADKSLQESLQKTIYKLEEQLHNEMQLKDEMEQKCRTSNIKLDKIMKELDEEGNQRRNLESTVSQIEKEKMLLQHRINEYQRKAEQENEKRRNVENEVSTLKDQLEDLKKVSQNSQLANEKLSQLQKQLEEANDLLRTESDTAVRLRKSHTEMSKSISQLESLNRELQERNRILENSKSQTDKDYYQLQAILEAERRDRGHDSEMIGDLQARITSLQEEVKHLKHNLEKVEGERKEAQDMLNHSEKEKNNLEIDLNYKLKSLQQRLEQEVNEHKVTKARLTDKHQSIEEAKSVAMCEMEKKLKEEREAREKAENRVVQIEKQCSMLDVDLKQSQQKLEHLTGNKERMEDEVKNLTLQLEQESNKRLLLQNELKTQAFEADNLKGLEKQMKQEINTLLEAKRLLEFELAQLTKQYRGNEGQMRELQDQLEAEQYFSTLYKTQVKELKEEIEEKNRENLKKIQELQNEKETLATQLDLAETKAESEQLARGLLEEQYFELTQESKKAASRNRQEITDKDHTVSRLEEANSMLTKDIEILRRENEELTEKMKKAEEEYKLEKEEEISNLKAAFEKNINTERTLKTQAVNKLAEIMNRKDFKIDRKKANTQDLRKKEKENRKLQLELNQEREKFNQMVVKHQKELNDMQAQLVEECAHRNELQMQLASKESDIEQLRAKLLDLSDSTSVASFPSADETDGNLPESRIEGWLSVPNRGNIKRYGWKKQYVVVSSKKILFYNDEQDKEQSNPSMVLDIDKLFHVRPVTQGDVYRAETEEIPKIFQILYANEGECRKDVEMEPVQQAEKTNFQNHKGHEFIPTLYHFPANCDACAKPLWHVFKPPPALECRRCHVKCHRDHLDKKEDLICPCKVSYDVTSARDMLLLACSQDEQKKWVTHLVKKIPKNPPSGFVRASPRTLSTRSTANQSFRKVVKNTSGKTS

SMILES | IC50 [1] [nM] | IC50 [2] [nM]
O=C(NCc1cc(F)cc(OC(F)F)c1)N1CCc2cc(-c3cn[nH]c3)c(F)cc21 [Compound T375, N-(3-(difluoromethoxy)-5-fluorobenzyl)-6-fluoro-5-(1H-pyrazol-4-yl)indoline-1-carboxamide] | 50 to 500 | ≤ 50
COc1cc(F)cc(CNC(=O)N2CCc3cc(-c4cn[nH]c4)cnc32)c1 [Compound T218, N-(3-fluoro-5-methoxybenzyl)-5-(1H-pyrazol-4-yl)-2,3-dihydro-1H-pyrrolo(2,3-b)pyridine-1-carboxamide] | 50 to 500 | 500 to 5000
COc1cc(F)cc(CNC(=O)N2Cc3ccc(-c4cn[nH]c4)cc3C2)c1 [Compound T209, N-(3-fluoro-5-methoxybenzyl)-5-(1H-pyrazol-4-yl)isoindoline-2-carboxamide] | 50 to 500 | 50 to 500
O=C(COc1cc(F)cc([C@@H](CO)NC(=O)N2CCc3cc(-c4cn[nH]c4)c(F)cc32)c1)N1CC(F)(F)C1 [Compound T350, (S′)-N-(1-(3-(2-(3,3-difluoroazetidin-1-yl)-2-oxoethoxy)-5-fluorophenyl)-2-hydroxyethyl)-6-fluoro-5-(1H-pyrazol-4-yl)indoline-1-carboxamide] | ≤ 50 | ≤ 50
COc1cc(F)cc(CNC(=O)c2ccc3nc(-c4cn[nH]c4)ccn23)c1 [Compound T235] | ≤ 50 | ≤ 50
O=C(NCc1ccccc1)N1CCc2cc(-c3cn[nH]c3)ccc21 [Compound T207, N-benzyl-5-(1H-pyrazol-4-yl)indoline-1-carboxamide] | ≤ 50 | ≤ 50
O=C(NC1CCCC1)c1cccc([C@@H](CO)NC(=O)N2CCc3cc(-c4cn[nH]c4)c(F)cc32)c1 [Compound T356-S, (S)-N-(1-(3-(cyclopentylcarbamoyl)phenyl)-2-hydroxyethyl)-6-fluoro-5-(1H-pyrazol-4-yl)indoline-1-carboxamide] | ≤ 50 | ≤ 50
COc1cc(F)cc(CNC(=O)N2CCc3cc(-c4cn[nH]c4)c(C#N)cc32)c1 [Compound T353, 6-cyano-N-(3-fluoro-5-methoxybenzyl)-5-(1H-pyrazol-4-yl)indoline-1-carboxamide] | 500 to 5000 | 50 to 500
COc1cc(F)cc(CNC(=O)N2CCc3cc(-c4cn[nH]c4)ncc32)c1 [Compound T219] | ≤ 50 | ≤ 50
COc1cc(F)cc(CN(CC2COC2)C(=O)N2CCc3cc(-c4cn[nH]c4)ccc32)c1 [Compound T212] | 500 to 5000 | 500 to 5000
CC(C)CNC(=O)COc1cc(F)cc([C@@H](CO)NC(=O)N2CCc3cc(-c4cn[nH]c4)c(F)cc32)c1 [Compound T367, (S)-6-fluoro-N-(1-(3-fluoro-5-(2-(isobutylamino)-2-oxoethoxy)phenyl)-2-hydroxyethyl)-5-(1H-pyrazol-4-yl)indoline-1-carboxamide] | ≤ 50 | ≤ 50
CN1CC(NC(=O)c2cccc(CNC(=O)N3CCc4cc(-c5cn[nH]c5)c(F)cc43)c2)C1 [Compound T379, 6-fluoro-N-(3-((1-methylazetidin-3-yl)carbamoyl)benzyl)-5-(1H-pyrazol-4-yl)indoline-1-carboxamide] | ≤ 50 | ≤ 50
COc1cc(F)cc([C@@H](CO)NC(=O)c2ncn3cc(-c4cn[nH]c4)ccc23)c1 [Compound T344, (S)-N-(1-(3-fluoro-5-methoxyphenyl)-2-hydroxyethyl)-6-(1H-pyrazol-4-yl)imidazo[1,5-a]pyridine-1-carboxamide] | ≤ 50 | ≤ 50
O=C(NCc1ccccc1)N1CCc2cc(-c3ccncc3)ccc21 [Compound T245] | 50 to 500 | 50 to 500
CC(C)NC(=O)COc1cc(F)cc([C@@H](CO)NC(=O)N2CCc3cc(-c4cn[nH]c4)c(F)cc32)c1 [Compound T358, (5)-6-fluoro-N-(1-(3-fluoro-5-(2-(isopropylamino)-2-oxoethoxy)phenyl)-2-hydroxyethyl)-5-(1H-pyrazol-4-yl)indoline-1-carboxamide] | ≤ 50 | ≤ 50
COc1cc(F)cc(CNC(=O)c2cnn3cc(-c4cn[nH]c4)ccc23)c1 [Compound T239] | ≤ 50 | ≤ 50

SMILES | IC50 [1] [nM] | IC50 [2] [nM]
COc1cc(F)cc(CNC(=O)N2CCc3nc(-c4cn[nH]c4)ncc32)c1 [Compound T231] | ≤ 50 | ≤ 50
O=C(NCC1CC1)c1cc(F)cc(CNC(=O)N2CCc3cc(-c4cn[nH]c4)c(F)cc32)c1 [Compound T378, N-(3-((cyclopropylmethyl)carbamoyl)-5-fluorobenzyl)-6-fluoro-5-(1H-pyrazol-4-yl)indoline-1-carboxamide] | ≤ 50 | ≤ 50
COc1cc(F)cc([C@@H](CO)NC(=O)N2CCc3cc(-c4cn[nH]c4)c(F)cc32)c1 [Compound T377, (S)-6-fluoro-N-(1-(3-fluoro-5-methoxyphenyl)-2-hydroxyethyl)-5-(1H-pyrazol-4-yl)indoline-1-carboxamide] | ≤ 50 | ≤ 50
COc1cc(F)cc(CNC(=O)N2CCc3cc(-c4cn[nH]c4F)ccc32)c1 [Compound T342, 5-(5-fluoro-1H-pyrazol-4-yl)-N-(3-fluoro-5-methoxybenzyl)indoline-1-carboxamide] | ≤ 50 | ≤ 50
CCOc1cc(F)cc([C@@H](CO)NC(=O)N2CCc3cc(-c4cn[nH]c4)c(F)cc32)c1 [Compound T390, (S′)-N-(1-(3-ethoxy-5-fluorophenyl)-2-hydroxyethyl)-6-fluoro-5-(1N-pyrazol-4-yl)indoline-1-carboxamide] | 50 to 500 | ≤ 50
O=C(NCc1cccc(F)c1)c1ncn2cc(-c3cn[nH]c3)ccc12 [Compound T368, N-(3-fluorobenzyl)-6-(1H-pyrazol-4-yl)imidazo[1,5-a]pyridine-1-carboxamide] | 500 to 5000 | 50 to 500
COc1cc(F)cc(CNC(=O)N2CCc3nc(-c4cn[nH]c4)sc3C2)c1 [Compound T224, N-(3-fluoro-5-methoxybenzyl)-2-(1H-pyrazol-4-yl)-6,7-dihydrothiazolo[5,4-c]pyridine-5(4H)-carboxamide] | 50 to 500 | 50 to 500
COc1cc(F)cc([C@@H](CO)NC(=O)c2ncc3cc(-c4cn[nH]c4)ccn23)c1 [Compound T373, (5)-N-(1-(3-fluoro-5-methoxyphenyl)-2-hydroxyethyl)-7-(1H-pyrazol-4-yl)imidazo[1,5-a]pyridine-3-carboxamide] | ≤ 50 | ≤ 50
O=C(N[C@H](CO)c1cc(F)cc(OCC2CC2)c1)N1CCc2cc(-c3cn[nH]c3)c(F)cc21 [Compound T386, (S)-N-(1-(3-(cyclopropylmethoxy)-5-fluorophenyl)-2-hydroxyethyl)-6-fluoro-5-(1H-pyrazol-4-yl)indoline-1-carboxamide] | 50 to 500 | ≤ 50
N#Cc1cc(F)cc(CNC(=O)N2CCc3cc(-c4c[nH]nc4N)c(F)cc32)c1 [Compound T348, 5-(3-amino-1H-pyrazol-4-yl)-N-(3-cyano-5-fluorobenzyl)-6-fluoroindoline-1-carboxamide] | 500 to 5000 | 500 to 5000
CN(C)C[C@H](NC(=O)N1CCc2cc(-c3c[nH]nc3F)c(F)cc21)c1cc(F)cc(F)c1 [Compound T366-R, (R)-N-(1-(3,5-difluorophenyl)-2-(dimethylamino)ethyl)-6-fluoro-5-(3-fluoro-1H-pyrazol-4-yl)indoline-1-carboxamide] | 500 to 5000 | 50 to 500
Cn1cc(CNC(=O)N2CCc3cc(-c4cn[nH]c4)ccc32)cn1 [Compound T241] | 50 to 500 | 50 to 500
COc1cc(F)cc(CNC(=O)c2nn(C)c3cc(-c4cn[nH]c4)ccc23)c1 [Compound T236] | ≤ 50 | ≤ 50
CN(C)Cc1cc(F)cc(CNC(=O)c2ncn3cc(-c4cn[nH]c4)ccc23)c1 [Compound T360, N-(3-((dimethylamino)methyl)-5-fluorobenzyl)-6-(1H-pyrazol-4-yl)imidazo[1,5-a]pyridine-1-carboxamide] | 500 to 5000 | 50 to 500
COc1cccc(F)c1C(CO)NC(=O)N1CCc2cc(-c3cn[nH]c3)c(F)cc21 (stereo not shown) [Compound T363, 6-fluoro-N-(1-(2-fluoro-6-methoxyphenyl)-2-hydroxyethyl)-5-(1H-pyrazol-4-yl)indoline-1-carboxamide] |  | 50 to 500
